# In US20260374754A1, “N-((ISOQUINOLIN-6-YL)METHYL)-1H-PYRAZOLE-4-CARBOXAMIDE DERIVATIVES AS PLASMA KALLIKREIN INHIBITORS FOR THE TREATMENT OF HEREDITARY ANGIODEMA” (Takeda Pharmaceutical Company Limited, priority 2022, published 2026):
# Molecular target: human activated kallikrein enzyme (Homo sapiens, UniProt P03952)
# Assay: Inhibition of human activated plasma kallikrein, fluorogenic PFR-AMC substrate, 500 pM enzyme format
# Assay type: biochemical
# Conditions: 500 pM activated kallikrein; 300 μM PFR-AMC; 30 min preincubation; 10 min room temperature; pH 7.5; read-out: Primary Dose Response Assay: Average EC50
# Summary of the method: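 Using fluorogenic PFR-AMC at 300 μM, cleavage by 500 pM human activated kallikrein ran 10 min at room temperature, read at 460 nm emission (380 nm excitation). Enzyme and compounds were first preincubated 30 min in 20 mM Tris pH 7.5, 150 mM NaCl, 1 mM EDTA, 0.1% PEG-400, 0.1% Triton X-100.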
# Chain of human activated kallikrein enzyme (P03952 391-638 limits assumed): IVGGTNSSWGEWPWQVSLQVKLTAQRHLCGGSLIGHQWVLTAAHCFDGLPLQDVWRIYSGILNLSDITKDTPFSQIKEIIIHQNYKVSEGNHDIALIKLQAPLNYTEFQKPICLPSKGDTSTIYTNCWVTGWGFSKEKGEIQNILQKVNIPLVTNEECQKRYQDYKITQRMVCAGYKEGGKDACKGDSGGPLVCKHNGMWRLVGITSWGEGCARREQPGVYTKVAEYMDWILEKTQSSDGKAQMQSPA
# Chain of human activated kallikrein enzyme (P03952 20-390 partner limits assumed): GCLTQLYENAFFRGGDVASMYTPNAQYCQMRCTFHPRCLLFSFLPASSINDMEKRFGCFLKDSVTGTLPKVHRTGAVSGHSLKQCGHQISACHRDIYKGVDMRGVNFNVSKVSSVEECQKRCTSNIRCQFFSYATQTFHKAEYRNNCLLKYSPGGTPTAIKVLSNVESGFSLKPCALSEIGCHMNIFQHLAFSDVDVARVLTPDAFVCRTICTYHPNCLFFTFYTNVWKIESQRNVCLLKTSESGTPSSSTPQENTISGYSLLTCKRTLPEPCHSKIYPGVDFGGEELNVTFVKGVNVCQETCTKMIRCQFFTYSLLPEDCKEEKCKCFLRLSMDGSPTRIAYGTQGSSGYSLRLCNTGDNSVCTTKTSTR
row,Compound,EC50 [nM]
1,"Cc1cc2c(N)nccc2c(C)c1CNC(=O)c1cnn(Cc2cc3ccc(Cl)cc3s2)c1 [Example 81, N-((1-amino-5,7-dimethylisoquinolin-6-yl)methyl)-1-((6-chlorobenzo[b]thiophen-2-yl)methyl)-1H-pyrazole-4-carboxamide]",1 to 10
2,"Cc1cc2c(N)nccc2c(C)c1CNC(=O)c1cnn(Cc2nc3ccccc3o2)c1 [Example 85, N-((1-amino-5,7-dimethylisoquinolin-6-yl)methyl)-1-(benzo[d]oxazol-2-ylmethyl)-1H-pyrazole-4-carboxamide]",10 to 100
3,"Cc1cc2c(N)nccc2c(C)c1CNC(=O)c1cnn(Cc2cnccn2)c1 [Example 86, N-((1-amino-5,7-dimethylisoquinolin-6-yl)methyl)-1-(pyrazin-2-ylmethyl)-1H-pyrazole-4-carboxamide]",100 to 1000
4,"Cc1cc2c(N)nccc2c(C)c1CNC(=O)c1cnn(Cc2ccncc2)c1 [Example 87, N-((1-amino-5,7-dimethylisoquinolin-6-yl)methyl)-1-(pyridin-4-ylmethyl)-1H-pyrazole-4-carboxamide]",100 to 1000
5,"Cc1cc2c(N)nccc2c(C)c1CNC(=O)c1cnn(Cc2cccnc2)c1 [Example 88, N-((1-amino-5,7-dimethylisoquinolin-6-yl)methyl)-1-(pyridin-3-ylmethyl)-1H-pyrazole-4-carboxamide]",10 to 100
6,"Cc1cc2c(N)nccc2c(C)c1CNC(=O)c1cnn(Cc2ccc(CC(=O)N3CC4CC4C3)nc2)c1 (centres unmarked) [Example 90, 1-((6-(2-(3-azabicyclo[3.1.0]hexan-3-yl)-2-oxoethyl)pyridin-3-yl)methyl)-N-((1-amino-5,7-dimethylisoquinolin-6-yl)methyl)-1H-pyrazole-4-carboxamide]",< 1
7,"COc1ccc(Cn2cc(C(=O)NCc3c(C)cc4c(N)nccc4c3C)cn2)cc1 [Example 91, N-((1-amino-5,7-dimethylisoquinolin-6-yl)methyl)-1-(4-methoxybenzyl)-1H-pyrazole-4-carboxamide]",10 to 100
8,"Cc1cc2c(N)nccc2c(C)c1CNC(=O)c1cnn(Cc2cccc(C#N)c2)c1 [Example 94, N-((1-amino-5,7-dimethylisoquinolin-6-yl)methyl)-1-(3-cyanobenzyl)-1H-pyrazole-4-carboxamide]",10 to 100

# Continued, values first:
row,EC50 [nM],Compound
1,100 to 1000,"Cc1cc2c(N)nccc2c(C)c1CNC(=O)c1cnn(Cc2sc3ccccc3c2Cl)c1 [Example 80, N-((1-amino-5,7-dimethylisoquinolin-6-yl)methyl)-1-((3-chlorobenzo[b]thiophen-2-yl)methyl)-1H-pyrazole-4-carboxamide]"
2,10 to 100,"Cc1cc2c(N)nccc2c(C)c1CNC(=O)c1cnn(Cc2cc3ccccc3o2)c1 [Example 82, N-((1-amino-5,7-dimethylisoquinolin-6-yl)methyl)-1-(benzofuran-2-ylmethyl)-1H-pyrazole-4-carboxamide]"
3,100 to 1000,"Cc1cc2c(N)nccc2c(C)c1CNC(=O)c1cnn(Cc2ncccn2)c1 [Example 83, N-((1-amino-5,7-dimethylisoquinolin-6-yl)methyl)-1-(pyrimidin-2-ylmethyl)-1H-pyrazole-4-carboxamide]"
4,1 to 10,"Cc1cc2c(N)nccc2c(C)c1CNC(=O)c1cnn(Cc2cc3ccccc3s2)c1 [Example 84, N-((1-amino-5,7-dimethylisoquinolin-6-yl)methyl)-1-(benzo[b]thiophen-2-ylmethyl)-1H-pyrazole-4-carboxamide]"
5,10 to 100,"Cc1cc2c(N)nccc2c(C)c1CNC(=O)c1cnn(Cc2ccc(C#N)cc2)c1 [Example 92, N-((1-amino-5,7-dimethylisoquinolin-6-yl)methyl)-1-(4-cyanobenzyl)-1H-pyrazole-4-carboxamide]"
6,10 to 100,"Cc1cc2c(N)nccc2c(C)c1CNC(=O)c1cnn(Cc2ccc(C(F)(F)F)cc2)c1 [Example 93, N-((1-amino-5,7-dimethylisoquinolin-6-yl)methyl)-1-(4-(trifluoromethyl)benzyl)-1H-pyrazole-4-carboxamide]"
